Experimental data taken from patent US8785470B2, “Heterocyclic compounds and uses thereof” (Infinity Pharmaceuticals, Inc., priority 2011, dated 2014).
pEC50, pIC50: −log10 of the molar value. Read-outs that look alike come from different tables or passages of the source.

Assays:
PI3Kβ = molecular target: T1, PI3Kβ (Homo sapiens, UniProt P42338); assay: PI3-Kinase HTRF assay, PI3Kβ; type: biochemical; conditions: bins Greater than 10 μM and Greater than 1 μM to 10 μM; 10 μM ATP, PIP2 at 10 μM
T1 construct: purchased Millipore Corporation 14-603-K
T1 sequence (P42338 whole entry): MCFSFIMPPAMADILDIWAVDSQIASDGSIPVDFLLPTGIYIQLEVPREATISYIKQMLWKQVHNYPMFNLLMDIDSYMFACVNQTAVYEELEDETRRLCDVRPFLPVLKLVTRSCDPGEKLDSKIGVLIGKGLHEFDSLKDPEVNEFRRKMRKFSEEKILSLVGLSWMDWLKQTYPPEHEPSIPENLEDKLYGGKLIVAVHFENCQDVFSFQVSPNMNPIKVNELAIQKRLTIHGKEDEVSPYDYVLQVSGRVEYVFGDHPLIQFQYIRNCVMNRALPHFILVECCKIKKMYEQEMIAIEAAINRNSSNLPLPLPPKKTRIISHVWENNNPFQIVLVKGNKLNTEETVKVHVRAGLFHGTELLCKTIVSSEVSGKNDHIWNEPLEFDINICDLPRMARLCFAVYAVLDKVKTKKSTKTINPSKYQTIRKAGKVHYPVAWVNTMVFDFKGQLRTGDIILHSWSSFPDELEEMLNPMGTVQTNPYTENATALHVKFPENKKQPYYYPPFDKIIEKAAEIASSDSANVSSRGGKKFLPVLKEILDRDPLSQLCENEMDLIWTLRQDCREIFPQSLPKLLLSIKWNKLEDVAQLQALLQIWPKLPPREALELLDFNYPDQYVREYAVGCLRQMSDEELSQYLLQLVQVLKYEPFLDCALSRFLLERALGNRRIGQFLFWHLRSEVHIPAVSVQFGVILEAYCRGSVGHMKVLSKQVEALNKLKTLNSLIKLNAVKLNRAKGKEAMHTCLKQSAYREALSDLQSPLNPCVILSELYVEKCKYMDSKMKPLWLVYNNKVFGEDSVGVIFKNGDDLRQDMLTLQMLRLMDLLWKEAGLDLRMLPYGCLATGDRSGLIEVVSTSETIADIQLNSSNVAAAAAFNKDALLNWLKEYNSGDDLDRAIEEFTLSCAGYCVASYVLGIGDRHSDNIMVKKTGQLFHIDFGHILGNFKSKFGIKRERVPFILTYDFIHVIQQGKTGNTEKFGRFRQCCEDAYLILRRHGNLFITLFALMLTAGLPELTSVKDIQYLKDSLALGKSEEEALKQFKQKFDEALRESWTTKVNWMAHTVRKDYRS
T1 sequence (P27986 whole entry partner): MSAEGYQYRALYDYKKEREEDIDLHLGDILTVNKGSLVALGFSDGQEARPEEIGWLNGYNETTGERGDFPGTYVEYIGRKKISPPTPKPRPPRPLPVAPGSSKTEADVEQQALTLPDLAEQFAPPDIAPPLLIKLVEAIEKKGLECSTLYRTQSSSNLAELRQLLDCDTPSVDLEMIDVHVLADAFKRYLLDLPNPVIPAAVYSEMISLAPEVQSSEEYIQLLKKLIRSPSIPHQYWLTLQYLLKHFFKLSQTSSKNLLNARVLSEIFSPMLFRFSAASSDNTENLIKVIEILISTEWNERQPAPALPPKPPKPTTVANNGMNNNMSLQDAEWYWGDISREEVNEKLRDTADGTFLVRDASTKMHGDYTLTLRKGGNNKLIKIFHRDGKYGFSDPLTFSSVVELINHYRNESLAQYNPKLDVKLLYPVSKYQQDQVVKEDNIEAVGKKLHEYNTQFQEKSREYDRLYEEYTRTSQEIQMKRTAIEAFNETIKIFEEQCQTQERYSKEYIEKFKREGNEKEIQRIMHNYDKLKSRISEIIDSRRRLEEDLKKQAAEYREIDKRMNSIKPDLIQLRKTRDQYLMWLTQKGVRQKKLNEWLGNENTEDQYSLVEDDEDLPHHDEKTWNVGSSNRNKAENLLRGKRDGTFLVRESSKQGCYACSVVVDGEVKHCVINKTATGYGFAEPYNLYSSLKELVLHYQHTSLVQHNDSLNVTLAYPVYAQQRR
From the text: (§1) A PI3-Kinase HTRF® assay kit (cat No. 33-016) purchased from Millipore Corporation was used to screen compounds provided herein. This assay used specific, high affinity binding of the GRPI pleckstrin homology (PH) domain to PIP3, the product of a Class 1A or 1B PI3 Kinase acting on its physiological substrate PIP2. During the detection phase of the assay, a complex was generated between the GST-tagged PH domain and biotinylated short chain PIP3. The biotinylated PIP3 and the GST-tagged PH domain recruited fluorophores (Streptavidin-Allophycocyanin and Europium-labeled anti-GST respectively) to form the fluorescence resonance energy transfer (FRET) architecture, generating a stable time-resolved FRET signal. The FRET complex was disrupted in a competitive manner by non-biotinylated PIP3, a product formed in the PI3 Kinase assay.
(§2) PI3 Kinase α, β, γ and δ activity was assayed using the PI3 Kinase HTRF® assay kit (catalogue No. 33-016) purchased from Millipore Corporation. Purified recombinant PI3Kα (catalogue No. 14-602-K), PI3Kβ (catalogue No. 14-603-K), PI3Kγ (catalogue No. 14-558-K) and PI3Kδ (catalogue No. 14-604-K) were obtained from Millipore Corporation. Purified recombinant PI3K enzyme was used to catalyze the phosphorylation of phosphatidylinositol 4,5-bisphosphate (PIP2 at 10 μM) to phosphatidylinositol 3,4,5-trisphosphate (PIP3) in the presence of 10 μM ATP. The assay was carried out in 384-well format and detected using a Perkin Elmer EnVision Xcite Multilabel Reader. Emission ratios were converted into percent inhibitions and imported into GraphPad Prism software. The concentration necessary to achieve inhibition of enzyme activity by 50% (IC50) was calculated using concentrations ranging from 20 μM to 0.1 nM (12-point curve). IC50 values were determined using a nonlinear regression model available in GraphPad Prism 5. […]

Balb/c splenic B cells = assay: B cell activation and proliferation assay; type: cell-based; conditions: Mus musculus, read-out: B cell proliferation EC50
Protocol: The ability of one or more subject compounds to inhibit B cell activation and proliferation is determined according to standard procedures known in the art. For example, an in vitro cellular proliferation assay is established that measures the metabolic activity of live cells. The assay is performed in a 96 well microtiter plate using Alamar Blue reduction. Balb/c splenic B cells are purified over a Ficoll-Paque™ PLUS gradient followed by magnetic cell separation using a MACS B cell Isolation Kit (Miletenyi). Cells are plated in 90 μl at 50.000 cells/well in B Cell Media (RPMI+10% FBS+Penn/Strep+50 μME5 mM HEPES). A compound provided herein is diluted in B Cell Media and added in a 10 μl volume. Plates are incubated for 30 min at 37° C. and 5% CO2 (0.2% DMSO final concentration). A 50 μl B cell stimulation cocktail is then added containing either 10 μg/ml LPS or 5 μg/ml F(ab′)2 Donkey anti-mouse IgM plus 2 ng/ml recombinant mouse IL4 in B Cell Media. Plates are incubated for 72 hours at 37° C. and 5% CO2. A volume of 15 μL of Alamar Blue reagent is added to each well and plates are incubated for 5 hours at 37° C. and 5% CO2. Alamar Blue fluoresce is read at 560Ex/590Em, and IC50 or EC50 values are calculated using GraphPad Prism 5.

PI3Kα = molecular target: T2, PI3Kα (Homo sapiens, UniProt P42336); assay: PI3-Kinase HTRF assay, PI3Kα; type: biochemical; conditions: bins Greater than 10 μM and Greater than 1 μM to 10 μM; 10 μM ATP, PIP2 at 10 μM; read-out: IC50 P13Kα
T2 construct: purchased Millipore Corporation 14-602-K
T2 sequence (P42336 whole entry): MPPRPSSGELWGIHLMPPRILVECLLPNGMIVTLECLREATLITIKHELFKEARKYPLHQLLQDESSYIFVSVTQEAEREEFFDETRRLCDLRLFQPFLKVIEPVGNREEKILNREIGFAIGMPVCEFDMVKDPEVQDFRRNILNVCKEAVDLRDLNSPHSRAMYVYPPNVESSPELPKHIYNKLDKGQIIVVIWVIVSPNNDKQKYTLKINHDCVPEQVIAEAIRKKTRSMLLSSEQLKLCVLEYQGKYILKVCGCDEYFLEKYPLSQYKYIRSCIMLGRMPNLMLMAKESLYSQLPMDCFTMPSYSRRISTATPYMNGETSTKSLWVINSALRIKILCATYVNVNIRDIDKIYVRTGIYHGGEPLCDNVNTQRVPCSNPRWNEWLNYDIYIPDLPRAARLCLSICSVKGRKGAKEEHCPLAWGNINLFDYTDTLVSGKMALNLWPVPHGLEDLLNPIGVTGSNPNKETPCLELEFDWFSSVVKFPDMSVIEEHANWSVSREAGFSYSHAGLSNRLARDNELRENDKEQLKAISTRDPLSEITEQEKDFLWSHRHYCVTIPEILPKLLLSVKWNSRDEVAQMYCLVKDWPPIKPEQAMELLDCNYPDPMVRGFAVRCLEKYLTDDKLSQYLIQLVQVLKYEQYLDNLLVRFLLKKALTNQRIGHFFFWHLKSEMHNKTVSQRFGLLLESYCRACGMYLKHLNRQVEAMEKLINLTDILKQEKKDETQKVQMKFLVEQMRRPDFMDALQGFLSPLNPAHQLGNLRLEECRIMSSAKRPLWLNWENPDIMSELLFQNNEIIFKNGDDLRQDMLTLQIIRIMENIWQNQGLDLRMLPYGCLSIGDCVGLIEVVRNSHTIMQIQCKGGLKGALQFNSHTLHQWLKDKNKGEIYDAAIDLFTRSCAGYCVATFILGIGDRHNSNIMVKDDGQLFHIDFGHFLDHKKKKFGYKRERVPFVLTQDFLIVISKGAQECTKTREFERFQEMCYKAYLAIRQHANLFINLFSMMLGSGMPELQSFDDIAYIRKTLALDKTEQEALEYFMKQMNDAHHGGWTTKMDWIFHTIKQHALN
T2 sequence (P27986 whole entry partner): as the sequence (P27986 whole entry partner) above
From the text: as §1, §2

[1] = column bins 1 μM to 100 nM (given as 100-1000) and Less than 100 nM

| Compound | pIC50 (PI3Kβ) | pEC50 (Balb/c splenic B cells; [1]) | pIC50 (PI3Kα) | pEC50 (Balb/c splenic B cells) |
| --- | --- | --- | --- | --- |
| C[C@H](Nc1nc(N)ncc1C#N)c1cc2cccc(-c3cncc(O)c3)c2c(=O)n1-c1ccccc1 [Compound 13, 2-amino-4-((S)-1-(8-(5-hydroxypyridin-3-yl)-1-oxo-2-phenyl-1,2-dihydroisoquinolin-3-yl)ethylamino)pyrimidine-5-carbonitrile] | 5.00 to 6.00 | > 7.00 | 5.00 to 6.00 | – |
| COc1cncc(-c2cccc3cc([C@H](C)Nc4nc(N)ncc4C#N)n(-c4cccc(F)c4)c(=O)c23)c1 [Compound 27] | 5.00 to 6.00 | > 7.00 | – | – |
| COc1cc(-c2cccc3cc([C@H](C)Nc4nc(N)ncc4C#N)n(-c4cccc(F)c4)c(=O)c23)ccn1 [Compound 28] | 5.00 to 6.00 | > 7.00 | – | – |
| C[C@H](Nc1nc(N)ncc1C#N)c1cc2cccc(-c3ccnnc3)c2c(=O)n1-c1cccc(F)c1 [Compound 30] | 5.00 to 6.00 | > 7.00 | – | – |
| C[C@H](Nc1nc(N)ncc1C#N)c1cc2cccc(-c3ccc(Cl)cc3)c2c(=O)n1-c1ccccc1 [Compound 32] | 5.00 to 6.00 | – | 5.00 to 6.00 | – |
| COc1ccc(-c2cccc3cc([C@H](C)Nc4nc(N)ncc4C#N)n(-c4ccccc4)c(=O)c23)cn1 [Compound 35] | 5.00 to 6.00 | – | 5.00 to 6.00 | – |
| COc1ccc(-c2cccc3cc([C@H](C)Nc4nc(N)ncc4C#N)n(-c4ccccc4)c(=O)c23)cc1 [Compound 38] | 5.00 to 6.00 | – | 5.00 to 6.00 | – |
| C[C@H](Nc1nc(N)ncc1C#N)c1cc2cccc(-c3ccc(N(C)C)cc3)c2c(=O)n1-c1ccccc1 [Compound 42] | 5.00 to 6.00 | > 7.00 | 5.00 to 6.00 | – |
| C[C@H](Nc1nc(N)ncc1C#N)c1cc2cccc(-c3ccc(C#N)cc3)c2c(=O)n1-c1ccccc1 [Compound 43] | 5.00 to 6.00 | > 7.00 | 5.00 to 6.00 | – |
| C[C@H](Nc1nc(N)ncc1C#N)c1cc2cccc(-c3cccc(C#N)c3)c2c(=O)n1-c1ccccc1 [Compound 44] | 5.00 to 6.00 | > 7.00 | 5.00 to 6.00 | – |
| C[C@H](Nc1nc(N)ncc1C#N)c1cc2cccc(-c3ccc(S(N)(=O)=O)cc3)c2c(=O)n1-c1ccccc1 [Compound 45] | 5.00 to 6.00 | > 7.00 | 5.00 to 6.00 | – |
| C[C@H](Nc1nc(N)ncc1C#N)c1cc2cccc(-c3cncc(C(F)(F)F)c3)c2c(=O)n1-c1ccccc1 [Compound 52] | 5.00 to 6.00 | > 7.00 | 5.00 to 6.00 | – |
| C[C@H](Nc1nc(N)ncc1C#N)c1nc2cccc(-c3cnn(C)c3)c2c(=O)n1-c1ccccc1 [Compound 61] | 5.00 to 6.00 | > 7.00 | 5.00 to 6.00 | – |
| Cc1cc(-c2cccc3nc([C@H](C)Nc4nc(N)ncc4C#N)n(-c4ccccc4)c(=O)c23)ccn1 [Compound 62] | 5.00 to 6.00 | > 7.00 | 5.00 to 6.00 | – |
| C[C@H](Nc1nc(N)ncc1C#N)c1nc2cccc(-c3ccnnc3)c2c(=O)n1-c1ccccc1 [Compound 66, (S)-2-amino-4-((1-(4-oxo-3-phenyl-5-(pyridazin-4-yl)-3,4-dihydroquinazolin-2-yl)ethyl)amino)pyrimidine-5-carbonitrile] | 5.00 to 6.00 | > 7.00 | 5.00 to 6.00 | – |
| Cc1ncc(-c2cccc3cc([C@H](C)Nc4nc(N)ncc4C#N)n(-c4ccccc4)c(=O)c23)s1 [Compound 68] | 5.00 to 6.00 | – | 5.00 to 6.00 | – |
| COc1ncc(-c2cccc3cc([C@H](C)Nc4nc(N)ncc4C#N)n(-c4ccccc4)c(=O)c23)s1 [Compound 70] | 5.00 to 6.00 | – | 5.00 to 6.00 | – |
| C[C@H](Nc1nc(N)ncc1C#N)c1cc2cccc(-c3cnoc3)c2c(=O)n1-c1ccccc1 [Compound 74] | 5.00 to 6.00 | > 7.00 | 5.00 to 6.00 | – |
| C[C@H](Nc1nc(N)ncc1C#N)c1cc2cccc(-c3ccc4c(c3)OCO4)c2c(=O)n1-c1ccccc1 [Compound 94] | 5.00 to 6.00 | > 7.00 | 5.00 to 6.00 | – |
| C[C@H](Nc1nc(N)ncc1C#N)c1cc2cccc(-c3cncc(F)c3)c2c(=O)n1-c1ccccc1 [Compound 98] | 5.00 to 6.00 | > 7.00 | 5.00 to 6.00 | – |

| Compound | pIC50 (PI3Kβ) | pEC50 (Balb/c splenic B cells; [1]) | pIC50 (PI3Kα) | pEC50 (Balb/c splenic B cells) |
| --- | --- | --- | --- | --- |
| COc1cc(-c2cccc3cc([C@H](C)Nc4nc(N)ncc4C#N)n(-c4ccccc4)c(=O)c23)cnc1C [Compound 100] | 5.00 to 6.00 | > 7.00 | – | – |
| C[C@H](Nc1nc(N)ncc1C#N)c1cc2cccc(-c3cccc(S(N)(=O)=O)c3)c2c(=O)n1-c1ccccc1 [Compound 102] | 5.00 to 6.00 | > 7.00 | 5.00 to 6.00 | – |
| COc1ncc(-c2cccc3cc([C@H](C)Nc4nc(N)ncc4C#N)n(C4CC4)c(=O)c23)cn1 [Compound 105] | 5.00 to 6.00 | > 7.00 | 5.00 to 6.00 | – |
| COc1cc(-c2cccc3nc([C@H](C)Nc4nc(N)ncc4C#N)n(-c4ccccc4)c(=O)c23)ccn1 [Compound 116] | 5.00 to 6.00 | – | 5.00 to 6.00 | > 7.00 |
| C[C@H](Nc1nc(N)ncc1C#N)c1cc2cccc(CC#N)c2c(=O)n1-c1ccccc1 [Compound 124] | 5.00 to 6.00 | > 7.00 | – | – |
| C[C@H](Nc1nc(N)ncc1C#N)c1cc2ccccc2c(=O)n1-c1ccccc1 [Compound 125] | 5.00 to 6.00 | > 7.00 | 5.00 to 6.00 | – |
| C[C@H](Nc1nc(N)ncc1C#N)c1cc2cccc(-c3cccc(NS(C)(=O)=O)c3)c2c(=O)n1-c1ccccc1 [Compound 126] | 5.00 to 6.00 | > 7.00 | 5.00 to 6.00 | – |
| COc1cc(-c2cccc3cc([C@H](C)Nc4nc(N)ncc4-c4cnc(OC)s4)n(-c4ccccc4)c(=O)c23)ccn1 [Compound 140] | 5.00 to 6.00 | > 7.00 | – | – |
| COc1cccc(-c2cccc3cc([C@H](C)Nc4nc(N)ncc4C#N)n(-c4ccccc4)c(=O)c23)n1 [Compound 166] | 5.00 to 6.00 | > 7.00 | – | – |
| C[C@H](Nc1nc(N)ncc1C#N)c1cc2cccc(-c3ccc(NS(C)(=O)=O)cc3)c2c(=O)n1-c1ccccc1 [Compound 167] | 5.00 to 6.00 | > 7.00 | 5.00 to 6.00 | – |
| COc1cc(-c2cccc3cc([C@H](C)Nc4nc(N)ncc4-c4cnc(C)s4)n(-c4ccccc4)c(=O)c23)ccn1 [Compound 181] | 5.00 to 6.00 | > 7.00 | – | – |
| C[C@H](Nc1nc(N)ncc1C#N)c1cc2cccc(-c3ccc(=O)n(C)c3)c2c(=O)n1-c1ccccc1 [Compound 183] | 5.00 to 6.00 | > 7.00 | 5.00 to 6.00 | – |
| C[C@H](Nc1nc(N)ncc1C#N)c1cc2cccc(-c3ccnc(N)c3)c2c(=O)n1-c1ccccc1 [Compound 187] | 5.00 to 6.00 | > 7.00 | 5.00 to 6.00 | – |
| C[C@H](Nc1nc(N)ncc1C#N)c1cc2cccc(-c3cncc(S(C)(=O)=O)c3)c2c(=O)n1-c1ccccc1 [Compound 189] | 5.00 to 6.00 | > 7.00 | 5.00 to 6.00 | – |
| COc1cc(-c2cccc3cc([C@H](C)Nc4nc(N)ncc4C#N)n(-c4ccccc4)c(=O)c23)cnc1OC [Compound 192] | 5.00 to 6.00 | > 7.00 | – | – |
| C[C@H](Nc1nc(N)ncc1C#N)c1cc2cccc(-c3ccc(=O)n(C4CCCC4)c3)c2c(=O)n1-c1ccccc1 [Compound 233] | 5.00 to 6.00 | > 7.00 | – | – |
| C[C@H](Nc1nc(N)ncc1C#N)c1cc2cccc(Cl)c2c(=O)n1CC(C)(C)C [Compound 246] | 5.00 to 6.00 | 6.00 to 7.00 | – | – |
| Cc1ccc(-n2c([C@H](C)Nc3nc(N)ncc3C#N)cc3cccc(Cl)c3c2=O)cc1 [Compound 252] | 5.00 to 6.00 | 6.00 to 7.00 | – | – |
| C[C@H](Nc1nc(N)ncc1-c1cccs1)c1cc2cccc(Cl)c2c(=O)n1-c1ccccc1 [Compound 367] | 5.00 to 6.00 | > 7.00 | – | – |
